pIC50, pKd: −log10 of the molar value. Calls of active or inactive are those of the source. The calls are words filed in the database; no cut-off is given here. Residues, ends and D or L forms follow the SMILES beside them.
Columns and labels:
[1] = biological target: T1, Prostaglandin G/H synthase 1 (Ovis aries) (UniProt P05979); assay: Inhibition of ovine COX1 at 1 nM to 1 mM by fluorescence assay
T1 sequence (whole entry): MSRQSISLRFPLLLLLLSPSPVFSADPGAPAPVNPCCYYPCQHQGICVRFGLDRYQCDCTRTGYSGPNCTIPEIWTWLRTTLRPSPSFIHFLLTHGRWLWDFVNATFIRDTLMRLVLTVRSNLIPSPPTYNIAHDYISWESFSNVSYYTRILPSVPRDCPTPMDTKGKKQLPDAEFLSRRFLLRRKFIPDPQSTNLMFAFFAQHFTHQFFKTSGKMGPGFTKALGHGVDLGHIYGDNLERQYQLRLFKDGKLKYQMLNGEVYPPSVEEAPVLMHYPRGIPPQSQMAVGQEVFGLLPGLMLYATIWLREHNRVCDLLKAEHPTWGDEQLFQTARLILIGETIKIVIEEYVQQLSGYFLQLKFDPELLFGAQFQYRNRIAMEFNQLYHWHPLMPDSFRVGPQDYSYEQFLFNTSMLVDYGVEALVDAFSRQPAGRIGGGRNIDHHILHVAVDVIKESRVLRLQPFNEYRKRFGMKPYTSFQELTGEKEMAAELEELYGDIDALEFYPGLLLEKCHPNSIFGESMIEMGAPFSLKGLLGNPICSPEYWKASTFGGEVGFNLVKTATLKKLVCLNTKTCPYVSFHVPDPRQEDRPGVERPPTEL

[2] = biological target: T2, Prostaglandin G/H synthase 2 (Homo sapiens, UniProt P35354); assay: Inhibition of human recombinant COX2 by fluorescence assay
T2 sequence (P35354 whole entry): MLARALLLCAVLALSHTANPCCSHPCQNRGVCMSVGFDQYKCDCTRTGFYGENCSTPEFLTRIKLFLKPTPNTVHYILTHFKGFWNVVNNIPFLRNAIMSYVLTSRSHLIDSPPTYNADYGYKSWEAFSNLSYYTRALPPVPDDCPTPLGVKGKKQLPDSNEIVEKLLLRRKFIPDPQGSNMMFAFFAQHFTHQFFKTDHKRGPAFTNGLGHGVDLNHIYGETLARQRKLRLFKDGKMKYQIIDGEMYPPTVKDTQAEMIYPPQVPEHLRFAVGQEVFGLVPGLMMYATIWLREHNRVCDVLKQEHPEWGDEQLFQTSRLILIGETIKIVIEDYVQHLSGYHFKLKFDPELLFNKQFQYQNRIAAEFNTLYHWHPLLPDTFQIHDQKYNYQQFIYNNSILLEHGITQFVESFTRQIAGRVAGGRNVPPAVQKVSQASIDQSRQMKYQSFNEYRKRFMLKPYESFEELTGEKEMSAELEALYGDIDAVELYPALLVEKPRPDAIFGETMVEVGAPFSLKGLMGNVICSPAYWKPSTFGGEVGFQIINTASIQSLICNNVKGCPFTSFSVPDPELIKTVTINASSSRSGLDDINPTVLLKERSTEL

[3] = biological target: T3, Prostaglandin G/H synthase 1 (Ovis aries, UniProt P05979); assay: Inhibition of ovine COX1 by fluorescence assay
T3 sequence (P05979 whole entry): T1 sequence (whole entry)

[4] = biological target: T2, Prostaglandin G/H synthase 2; assay: Inhibition of COX2 by ELISA
[5] = biological target: T2, Prostaglandin G/H synthase 2; assay: Binding affinity to COX2 by surface plasmon resonance spectroscopy
[6] = biological target: T4, Prostaglandin G/H synthase 2 (Homo sapiens) (UniProt P35354); assay: Inhibition of human recombinant COX2 at 1 nM to 1 mM by fluorescence assay
T4 sequence (whole entry): T2 sequence (P35354 whole entry)

inhibition [1]	pIC50 [2]	pIC50 [3]	pIC50 [4]	pKd [5]	inhibition [6]	SMILES
inactive	3.85					O=C(N[C@@H](Cc1ccc(O)cc1)C(=O)N[C@@H](CO)C(=O)O)c1ccc(F)cc1
inactive	< 3.00					CSCC[C@H](NC(=O)[C@H](Cc1ccccc1)NC(=O)c1ccc(F)cc1)C(=O)N[C@@H](CCC(=O)O)C(=O)O
	4.85	4.82				O=C(O)C[C@H](NC(=O)[C@H](CS)NC(=O)c1ccc(F)cc1)C(=O)O
inactive	3.70					O=C(N[C@@H](Cc1c[nH]c2ccccc12)C(=O)N[C@@H](CO)C(=O)O)c1ccc(F)cc1
inactive	3.15					N[C@@H](Cc1c[nH]c2ccccc12)C(=O)N[C@@H](Cc1ccc(O)cc1)C(=O)N[C@@H](CC(=O)O)C(=O)O (H-Trp-Tyr-Asp-OH)
	4.68	5.22	7.82	9.72		N[C@@H](Cc1c[nH]c2ccccc12)C(=O)N[C@@H](CS)C(=O)N[C@@H](CO)C(=O)O (H-Trp-Cys-Ser-OH)
inactive	3.35					CSCC[C@H](NC(=O)[C@H](Cc1ccccc1)NC(=O)c1ccc(F)cc1)C(=O)N[C@@H](CC(=O)O)C(=O)O
	4.07	3.85				O=C(N[C@@H](Cc1c[nH]c2ccccc12)C(=O)N[C@@H](CS)C(=O)N[C@@H](CO)C(=O)O)c1ccc(F)cc1
inactive	3.35					CSCC[C@H](NC(=O)[C@H](Cc1c[nH]c2ccccc12)NC(=O)c1ccc(F)cc1)C(=O)N[C@@H](CC(=O)O)C(=O)O
inactive	3.96					O=C(O)C[C@H](NC(=O)[C@H](Cc1ccc(O)cc1)NC(=O)c1ccc(F)cc1)C(=O)O
inactive	< 3.00					CSCC[C@H](NC(=O)[C@H](Cc1ccc(O)cc1)NC(=O)c1ccc(F)cc1)C(=O)N[C@@H](CC(=O)O)C(=O)O
	4.82	5.30				O=C(N[C@@H](CS)C(=O)N[C@@H](CO)C(=O)O)c1ccc(F)cc1
inactive	3.46					CSCC[C@H](NC(=O)[C@H](Cc1c[nH]c2ccccc12)NC(=O)c1ccc(F)cc1)C(=O)N[C@@H](CCC(=O)O)C(=O)O
inactive					inactive	O=C(O)C[C@H](NC(=O)[C@H](Cc1ccc(O)cc1)NC(=O)[C@H](Cc1c[nH]c2ccccc12)NC(=O)c1ccc(F)cc1)C(=O)O
inactive	3.74					O=C(N[C@@H](Cc1ccc(O)cc1)C(=O)N[C@@H](Cc1c[nH]c2ccccc12)C(=O)N[C@@H](CO)C(=O)O)c1ccc(F)cc1
inactive	3.30					CSCC[C@H](NC(=O)[C@H](Cc1ccc(O)cc1)NC(=O)c1ccc(F)cc1)C(=O)N[C@@H](CCC(=O)O)C(=O)O
	4.89	4.57				O=C(N[C@@H](Cc1ccccc1)C(=O)N[C@@H](CS)C(=O)N[C@@H](CO)C(=O)O)c1ccc(F)cc1
